For 26 molecules, IC50 results are on record in patent US20240000767A1, “COMBINATION OF AN ALPHA2-ADRENOCEPTOR SUBTYPE C (ALPHA-2C) ANTAGONIST WITH A TASK1/3 CHANNEL BLOCKER FOR THE TREATMENT OF SLEEP APNEA” (Bayer Aktiengesellschaft, priority 2020, published 2024).

SMILES strings stand for the structures.

This experiment addresses human ADRA2C receptor (Homo sapiens (Human), UniProt P18825). The experiment can be described thus: In vitro activity assay to determine the inhibition of recombinant ADRA2C (CHO-K1 cells, aequorin bioluminescence). It is filed as cell-based. The settings on record: inhibition of noradrenaline-induced bioluminescence signal; some mean values from multiple determinations; read-out: ARα2C IC50. On the procedure:
B-2. In Vitro Activity Assay to Determine the Inhibition of Recombinant ADRA2C
The human ADRA2C receptor belongs to the G protein(guanine-dependent protein)-coupled receptors, the main function of which is the transduction of signals into the interior of the cell.
The investigations of the inhibition of the recombinant human ADRA2C receptors were carried out with stabily transfected CHO-K1 cells coexpressing the Gaq protein and the calcium-sensitive photoprotein aequorin. In this recombinant system, binding of the agonists noradrenaline to the ADRA2C receptor leads, after activation of a signal cascade, to calcium release from intracellular stores, which is detected by the intracellular calcium sensor aequorin as a bioluminescent signal. The method is described in detail in the reference below. [Wunder F., Kalthof B., Muller T., Hueser J. Functional Cell-Based Assays in Microliter Volumes for Ultra-High Throughput Screening. Combinatorial Chemistry & High Throughput Screening, Volume 11, Number 7, 2008, pp. 495-504(10). doi.org/10.2174/138620708785204054]
The activity of the test substances was determined via their ability to inhibit the agonist-induced increase of the bioluminescence signal. The concentration which can block half of this signal increase is referred to as IC50. The IC50 value is calculated using the 4 parameter logistic function (Hill function):
Top=upper threshold, Bottom=lower threshold, Slope=slope, IC50=turning point

Chain of human ADRA2C receptor (P18825 whole entry): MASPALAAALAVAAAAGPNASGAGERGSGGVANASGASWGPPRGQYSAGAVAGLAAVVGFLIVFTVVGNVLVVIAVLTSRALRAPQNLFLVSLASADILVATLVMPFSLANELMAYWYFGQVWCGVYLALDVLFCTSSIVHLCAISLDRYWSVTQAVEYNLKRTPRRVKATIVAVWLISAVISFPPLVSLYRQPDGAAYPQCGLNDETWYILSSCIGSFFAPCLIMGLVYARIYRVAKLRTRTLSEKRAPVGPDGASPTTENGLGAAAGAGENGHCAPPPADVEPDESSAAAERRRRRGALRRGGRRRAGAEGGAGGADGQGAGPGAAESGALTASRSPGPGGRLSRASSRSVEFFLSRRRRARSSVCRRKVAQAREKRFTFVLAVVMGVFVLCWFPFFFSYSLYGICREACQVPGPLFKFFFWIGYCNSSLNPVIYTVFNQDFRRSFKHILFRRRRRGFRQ

Consider `C[C@@H]1CCCN(C2CCN(c3ncc(C(=O)NCc4ncc(F)cc4F)s3)CC2F)C1` (mixture of isomers) [Example 50, diamix-N-[(3,5-Difluoropyridin-2-yl)methyl]-2-[(3R)-3′-fluoro-3-methyl[1,4′-bipiperidin]-1′-yl]-1,3-thiazole-5-carboxamide], for which the IC50 was determined as 73.5 nM.

Regarding `CC(NC(=O)c1cnc(N2CCC(N3CCC[C@@H](C)C3)CC2)s1)c1ncc(F)cc1F` (mixture of isomers) [Example 55, diamix-N-[1-(3,5-Difluoropyridin-2-yl)ethyl]-2-[(3R)-3-methyl[1,4′-bipiperidin]-1′-yl]-1,3-thiazole-5-carboxamide], the IC50 is 150 nM.

As for `C[C@@H]1CCCN(C2CCN(c3nc(C(=O)NCc4ncc(F)cc4F)cs3)CC2F)C1` (mixture of isomers) [Example 111, diamix-N-[(3,5-Difluoropyridin-2-yl)methyl]-2-[(3R)-3′-fluoro-3-methyl[1,4′-bipiperidin]-1′-yl]-1,3-thiazole-4-carboxamide], the IC50 is 0.49 nM.

Take `C[C@@H]1CCCN(C2CCN(c3nc(C(=O)NCc4ncc(F)cc4F)co3)CC2F)C1` (mixture of isomers) [Example 112, diamix-N-[(3,5-Difluoropyridin-2-yl)methyl]-2-[(3R)-3′-fluoro-3-methyl[1,4′-bipiperidin]-1′-yl]-1,3-oxazole-4-carboxamide]: the IC50 was found to be 1.2 nM.

`C[C@@H]1CCCN(C2CCN(c3ncc(C(=O)NCc4cc(Cl)ccc4F)s3)CC2F)C1` (mixture of isomers) [Example 113, diamix-N-(5-Chloro-2-fluorobenzyl)-2-[(3R)-3′-fluoro-3-methyl[1,4′-bipiperidin]-1′-yl]-1,3-thiazole-5-carboxamide]: the concentration for half-maximal inhibition (IC50) was 0.61 nM.

On to `CC(NC(=O)c1cnc(N2CCC(N3CCC[C@@H](C)C3)C(F)C2)s1)c1cc(F)ccc1F` (mixture of isomers) [Example 117, diamix-N-[1-(2,5-Difluorophenyl)ethyl]-2-[(3R)-3′-fluoro-3-methyl[1,4′-bipiperidin]-1′-yl]-1,3-thiazole-5-carboxamide], for which the IC50 was determined as 0.65 nM.

Turning to `O=C(NCc1ncc(F)cc1F)c1cnc(N2CCC(N3CCCC(CC4CC4)C3)CC2)s1` (racemic) [Example 3, 2-[3-(Cyclopropylmethyl)[1,4′-bipiperidin]-1′-yl]-N-[(3,5-difluoropyridin-2-yl)methyl]-1,3-thiazole-5-carboxamide (racemate)], the IC50 was 2.9 nM.

As to `O=C(NCc1ncc(F)cc1F)c1cnc(N2CCC(N3CCCC(C(F)F)C3)CC2)s1` (racemic) [Example 4, 2-[3-(difluoromethyl)[1,4′-bipiperidin]-1′-yl]-N-[(3,5-difluoropyridin-2-yl)methyl]-1,3-thiazole-5-carboxamide (racemate)], the IC50 came out at 169 nM.

In the case of `O=C(NCc1ncc(F)cc1F)c1cnc(N2CCC(N3CCCC(C(F)(F)F)C3)CC2)s1` (racemic) [Example 5, N-[(3,5-difluoropyridin-2-yl)methyl]-2-[3-(trifluoromethyl)[1,4′-bipiperidin]-1′-yl]-1,3-thiazole-5-carboxamide (racemate)], the IC50 came out at 335 nM.

In the case of `O=C(NCc1ncc(F)cc1F)c1cnc(N2CCC(N3CCCC(CF)C3)CC2)s1` (racemic) [Example 6, N-[(3,5-difluoropyridin-2-yl)methyl]-2-[3-(fluoromethyl)[1,4′-bipiperidin]-1′-yl]-1,3-thiazole-5-carboxamide (racemate)], the IC50 came out at 335 nM.

Regarding `O=C(NCc1ncc(F)cc1F)c1cnc(N2CCC(N3CCCC(OCC4CC(F)(F)C4)C3)CC2)s1` (racemic) [Example 7, 2-{3-[(3,3-difluorocyclobutyl)methoxy][1,4′-bipiperidin]-1′-yl}-N-[(3,5-difluoropyridin-2-yl)methyl]-1,3-thiazole-5-carboxamide (racemate)], the IC50 is 49.6 nM.

As to `O=C(NCc1ncc(F)cc1F)c1cnc(N2CCC(N3CCCC(OC(F)F)C3)CC2)s1` (racemic) [Example 16, 2-[3-(Difluoromethoxy)[1,4′-bipiperidin]-1′-yl]-N-[(3,5-difluoropyridin-2-yl)methyl]-1,3-thiazole-5-carboxamide (racemate)], the IC50 was found to be 2000 nM.

Take `CCC1CCCN(C2CCN(c3ncc(C(=O)NCc4ncc(F)cc4F)s3)CC2)C1` (racemic) [Example 17, N-[(3,5-Difluoropyridin-2-yl)methyl]-2-(3-ethyl[1,4′-bipiperidin]-1′-yl)-1,3-thiazole-5-carboxamide (racemate)]: the IC50 was 26.5 nM.

Turning to `COCC1CCCN(C2CCN(c3ncc(C(=O)NCc4ncc(F)cc4F)s3)CC2)C1` (racemic) [Example 48, rac-N-[(3,5-Difluoropyridin-2-yl)methyl]-2-[3-(methoxymethyl)[1,4′-bipiperidin]-1′-yl]-1,3-thiazole-5-carboxamide], the IC50 turned out to be 17 nM.

As for `CC1CCCN(C2CCN(c3ncc(C(=O)NCc4ncc(F)cc4F)s3)CC2)CC1` (racemic) [Example 53, rac-N-[(3,5-Difluoropyridin-2-yl)methyl]-2-[4-(4-methylazepan-1-yl)piperidin-1-yl]-1,3-thiazole-5-carboxamide], the IC50 was found to be 110 nM.

For `CC1CCCCN(C2CCN(c3ncc(C(=O)NCc4ncc(F)cc4F)s3)CC2)C1` (racemic) [Example 54, rac-N-[(3,5-Difluoropyridin-2-yl)methyl]-2-[4-(3-methylazepan-1-yl)piperidin-1-yl]-1,3-thiazole-5-carboxamide], the IC50 came out at 230 nM.

As for `O=C(NCc1ncc(F)cc1F)c1cnc(N2CCC(N3CCCC(COCC(F)(F)F)C3)CC2)s1` (racemic) [Example 59, rac-N-[(3,5-Difluoropyridin-2-yl)methyl]-2-{3-[(2,2,2-trifluoroethoxy)methyl][1,4′-bipiperidin]-1′-yl}-1,3-thiazole-5-carboxamide], the IC50 turned out to be 11 nM.

With `O=C(NCc1ncc(F)cc1F)c1cnc(N2CCC(N3CCCC(COCC4(CF)CC4)C3)CC2)s1` (racemic) [Example 60, rac-N-[(3,5-Difluoropyridin-2-yl)methyl]-2-[3-({[1-(fluoromethyl)cyclopropyl]methoxy}methyl)[1,4′-bipiperidin]-1′-yl]-1,3-thiazole-5-carboxamide], the IC50 stood at 74 nM.

On to `O=C(NCc1ncc(F)cc1F)c1cnc(N2CCC(N3CCCC(COCC4(C(F)F)CC4)C3)CC2)s1` (racemic) [Example 61, rac-2-[3-({[1-(Difluoromethyl)cyclopropyl]methoxy}methyl)[1,4′-bipiperidin]-1′-yl]-N-[(3,5-difluoropyridin-2-yl)methyl]-1,3-thiazole-5-carboxamide], for which the IC50 stood at 87 nM.

For the molecule `O=C(NCc1ncc(F)cc1F)c1cnc(N2CCC(N3CCCC(COCC4(C(F)(F)F)CC4)C3)CC2)s1` (racemic) [Example 62, rac-N-[(3,5-Difluoropyridin-2-yl)methyl]-2-[3-({[1-(trifluoromethyl)cyclopropyl]methoxy}methyl)[1,4′-bipiperidin]-1′-yl]-1,3-thiazole-5-carboxamide], the IC50 worked out at 130 nM.

Consider `O=C(NCc1ncc(F)cc1F)c1cnc(N2CCC(N3CCCC4(C3)CC4(F)F)CC2)s1` (racemic) [Example 65, rac-2-[4-(1,1-Difluoro-5-azaspiro[2.5]octan-5-yl)piperidin-1-yl]-N-[(3,5-difluoropyridin-2-yl)methyl]-1,3-thiazole-5-carboxamide], for which the IC50 was determined as 4.5 nM.

For `O=C(NCc1ncc(F)cc1F)c1cnc(N2CCC(N3CCCC(OCC4CC4)C3)CC2)s1` (racemic) [Example 67, rac-2-[3-(Cyclopropylmethoxy)[1,4′-bipiperidin]-1′-yl]-N-[(3,5-difluoropyridin-2-yl)methyl]-1,3-thiazole-5-carboxamide], the IC50 stood at 2.2 nM.

Consider `O=C(NCc1ncc(F)cc1F)c1cnc(N2CCC(N3CCCC(COCC4CC4)C3)CC2)s1` (racemic) [Example 69, rac-2-{3-[(Cyclopropylmethoxy)methyl][1,4′-bipiperidin]-1′-yl}-N-[(3,5-difluoropyridin-2-yl)methyl]-1,3-thiazole-5-carboxamide], for which the IC50 worked out at 5.5 nM.

For `CCOC1CCCN(C2CCN(c3ncc(C(=O)NCc4ncc(F)cc4F)s3)CC2)C1` (racemic) [Example 70, rac-N-[(3,5-Difluoropyridin-2-yl)methyl]-2-[3-ethoxy[1,4′-bipiperidin]-1′-yl]-1,3-thiazole-5-carboxamide], the IC50 is 22 nM.

Consider `O=C(NCc1ncc(F)cc1F)c1cnc(N2CCC(N3CCCC(COCC4CC(F)(F)C4)C3)CC2)s1` (racemic) [Example 75, rac-2-(3-{[(3,3-Difluorocyclobutyl)methoxy]methyl}[1,4′-bipiperidin]-1′-yl)-N-[(3,5-difluoropyridin-2-yl)methyl]-1,3-thiazole-5-carboxamide], for which the IC50 was 345 nM.

`O=C(NCc1ncc(F)cc1F)c1cnc(N2CCC(N3CCCC(OCC(F)(F)F)C3)CC2)s1` (racemic) [Example 77, rac-N-[(3,5-Difluoropyridin-2-yl)methyl]-2-[3-(2,2,2-trifluoroethoxy)[1,4′-bipiperidin]-1′-yl]-1,3-thiazole-5-carboxamide]: the 50% inhibitory concentration (IC50) worked out at 640 nM.

A word on the IC50: it is the concentration that gives 50% inhibition.
